Results reported in publication PMC4578755, “Development of novel cellular histone-binding and chromatin-displacement assays for bromodomain drug discovery” (Epigenetics & Chromatin, 2015).

Target: T1, endogenous TRIM24 in OV90 cells (Homo sapiens, UniProt O15164)
T1 construct: non-transfected OV90 cells looking at endogenous TRIM24; endogenous in cells; host or cells: OV90
T1 sequence (O15164 1-1050): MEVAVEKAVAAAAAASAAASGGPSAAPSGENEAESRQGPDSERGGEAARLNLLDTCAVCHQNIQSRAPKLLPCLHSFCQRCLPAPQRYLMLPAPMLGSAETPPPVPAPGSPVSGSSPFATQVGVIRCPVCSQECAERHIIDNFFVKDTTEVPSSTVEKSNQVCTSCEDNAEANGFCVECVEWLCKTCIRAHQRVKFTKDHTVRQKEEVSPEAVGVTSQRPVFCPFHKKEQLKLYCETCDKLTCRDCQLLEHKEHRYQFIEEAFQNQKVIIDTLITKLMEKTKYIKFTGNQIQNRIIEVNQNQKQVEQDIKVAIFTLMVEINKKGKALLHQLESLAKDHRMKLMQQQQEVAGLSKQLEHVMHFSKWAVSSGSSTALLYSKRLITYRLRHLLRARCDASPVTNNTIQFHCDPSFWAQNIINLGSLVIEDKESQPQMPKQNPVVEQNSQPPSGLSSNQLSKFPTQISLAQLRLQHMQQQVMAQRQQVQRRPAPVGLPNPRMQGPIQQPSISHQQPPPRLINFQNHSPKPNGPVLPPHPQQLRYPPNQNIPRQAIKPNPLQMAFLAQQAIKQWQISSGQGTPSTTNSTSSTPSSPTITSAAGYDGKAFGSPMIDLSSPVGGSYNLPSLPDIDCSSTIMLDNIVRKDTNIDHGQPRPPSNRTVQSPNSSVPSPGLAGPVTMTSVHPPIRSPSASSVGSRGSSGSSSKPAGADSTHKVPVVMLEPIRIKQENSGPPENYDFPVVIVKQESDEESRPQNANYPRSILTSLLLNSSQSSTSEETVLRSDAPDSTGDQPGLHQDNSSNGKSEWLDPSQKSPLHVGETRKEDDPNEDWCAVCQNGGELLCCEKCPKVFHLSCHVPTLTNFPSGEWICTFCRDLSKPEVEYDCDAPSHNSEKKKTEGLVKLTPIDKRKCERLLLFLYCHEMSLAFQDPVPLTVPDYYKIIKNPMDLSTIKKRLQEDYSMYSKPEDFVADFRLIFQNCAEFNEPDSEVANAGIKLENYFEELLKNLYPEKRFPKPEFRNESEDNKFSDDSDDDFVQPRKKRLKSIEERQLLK
Experiment: In situ cell extraction with IF in OV90 cells
Format: cell-based
Method: OV90 or HeLa cells (20,000 cells/100 µL) were seeded into 96-well plates (Corning Costar #3603) using RPMI or DMEM medium, respectively, supplemented with 10 % FBS and grown overnight. Test agents were serially diluted in DMSO (with or without SAHA) to generate 10X master compound plates. From here, 11 µL was transferred into each well containing 100 µL of growth media followed by shaking on a rotation table (15 min, 300 rpm at RT) and incubation at 37 °C for 2 h. Plates were washed once with PBS (150 µL/well) and then with cold, freshly prepared Cytoskeleton (CSK) Buffer (10 mM PIPES, 300 mM Sucrose, 100 mM NaCl, 3 mM MgCl2; pH = 6.8). Immediately thereafter, soluble, non-chromatin-bound proteins were extracted by addition of cold CSK Buffer supplemented with 0.5 % Triton X-100 (150 µL per well) for 10 min at 4 °C followed by 4 % paraformaldehyde fixation (10 min at RT) (Additional file 1: Table S3).
Standard IF procedures were used. Briefly, cells were permeabilized (0.5 % Triton X-100 in PBS) for 15 min and incubated with blocking solution (DAKO #X0909) for 30 min. The following primary antibodies were used: goat anti-V5 (Bethyl #A190-119A) 1:200; mouse anti-FLAG (Sigma #F1804) 1:200; rabbit anti-BRD4 (Abcam #ab128874) 1:200; rabbit anti-TRIM24 (Proteintech #14208-1-AP) 1:400; rabbit anti-K3K23Ac (Cell Signaling #8848) 1:200, and mouse anti-histone H3 (Active Motif #39763) 1:4000. Alexa Fluor-conjugated secondary antibodies were from Invitrogen and Hoechst 33342 (Invitrogen, #H3570) was used for nuclei counterstaining (10 µg/ml). For each Alexa fluorochrome, images (4–10 fields per well; 20X magnifications) were acquired using the Operetta High-Content Screening System (PerkinElmer). Image analysis was performed in Harmony software (PerkinElmer) by selecting nuclei and cytoplasm in Hoechst channel. Gating for single cells of flat morphology was done based on nuclei area, roundness and intensity of Hoechst in the nucleus and in the cytoplasm. In every gated cell, the mean signal intensity value for each fluorochrome was calculated separately in nucleus and cytoplasm. The specific nuclear signal was estimated subtracting mean cytoplasmic value from nuclear; and average value was calculated using at least 1000 cells in each well.
Supplemental Table S3 (Zhan et al.)
Table S3. In Situ Cell Extraction Procedure (IF)
Step Parameter Solution Volume Time Temp (°C)
Seed cells DMEM supplemented with 10 % FBS 37°C,
2 SAHA treatment SAHA (50 µM) in DMEM with 10% FBS 12 µL 2h 37°C,
3 Prepare Master 100X final concentration in assay 30 µL […]
Image analysis: The analysis was performed in Harmony (PerkinElmer) software by selecting nuclei and cytoplasm in Hoechst 33342 channel . […] For each channel “mean nuclear signal“ was calculated as “mean […]

Row | Histone H3 protein levels (OV90, 10 µM, 2 h) | Chromatin binding of endogenous TRIM24 (OV90 cells) | Time to displacement of endogenous TRIM24 from chromatin (non-transfected OV90 cells) [min] | Mean IF nuclei intensity of endogenous TRIM24 (OV90, SAHA treatment) | Structure (SMILES)
1 | unchanged | readily reduced | ≤ 5 | – | Cc1nc(S(=O)(=O)Nc2cc3c(cc2Oc2cccc(OCC(C)C)c2)n(C)c(=O)n3C)cn1C [IACS-6558, N-{1,3-dimethyl-6-[3-(2-methylpropoxy)phenoxy]-2-oxo-2,3-dihydro-1H-1,3-benzodiazol-5-yl}-1,2-dimethyl-1H-imidazole-4-sulfonamide]
2 | – | – | – | did not change | O=C(CCCCCCC(=O)Nc1ccccc1)NO [SAHA, Suberoylanilide Hydroxamic Acid]
